Reference: the CheMixHub ionic liquid set

Test: xn = mol fraction of the nth substance listed

FC(F)C(F)(F)OCC(F)(F)C(F)(F)C(F)(F)C(F)F + CCCC[N+]1(C)CCCC1.FC(F)(F)C(F)(F)[P-](F)(F)(F)(C(F)(F)C(F)(F)F)C(F)(F)C(F)(F)F
101 kPa
Conditions | electrical conductivity [S/m] | viscosity [mPa·s]
298.1 K, x2 = 0 | – | 2.5
298.1 K, x2 = 0.12 | 0.18 | –
298.1 K, x2 = 0.191 | – | 7.43
298.1 K, x2 = 0.194 | 0.257 | –
298.1 K, x2 = 0.272 | 0.28 | –
298.1 K, x2 = 0.363 | 0.306 | –
298.1 K, x2 = 0.454 | 0.291 | –
298.1 K, x2 = 0.456 | – | 25.4
298.1 K, x2 = 0.564 | 0.241 | –
298.1 K, x2 = 0.694 | 0.182 | 65.6
298.1 K, x2 = 0.847 | – | 117.9
298.1 K, x2 = 0.853 | 0.161 | –
303 K, x2 = 0.12 | 0.199 | –
303 K, x2 = 0.123 | – | 4.63
303 K, x2 = 0.194 | 0.29 | –
303 K, x2 = 0.269 | 0.32 | –
303 K, x2 = 0.359 | 0.35 | –
303 K, x2 = 0.361 | – | 14.13
303 K, x2 = 0.457 | 0.335 | –
303 K, x2 = 0.567 | 0.288 | 32.7
303 K, x2 = 0.694 | 0.23 | –
303 K, x2 = 0.847 | – | 91.9
303 K, x2 = 0.85 | 0.198 | –
308.1 K, x2 = 0 | – | 2.12
308.1 K, x2 = 0.123 | 0.217 | –
308.1 K, x2 = 0.191 | 0.32 | –
308.1 K, x2 = 0.272 | 0.36 | –
308.1 K, x2 = 0.273 | – | 8.09
308.1 K, x2 = 0.366 | 0.401 | –
308.1 K, x2 = 0.456 | – | 17.2
308.1 K, x2 = 0.463 | 0.39 | –
308.1 K, x2 = 0.564 | 0.343 | –
308.1 K, x2 = 0.691 | 0.27 | –
308.1 K, x2 = 0.847 | 0.234 | 71.6
313 K, x2 = 0.058 | – | 2.88
313 K, x2 = 0.123 | 0.239 | –
313 K, x2 = 0.197 | 0.356 | –
313 K, x2 = 0.272 | 0.412 | –
313 K, x2 = 0.359 | 0.449 | –
313 K, x2 = 0.361 | – | 11.01
313 K, x2 = 0.46 | 0.442 | –
313 K, x2 = 0.57 | 0.387 | –
313 K, x2 = 0.691 | 0.322 | –
313 K, x2 = 0.694 | – | 33.7
313 K, x2 = 0.847 | – | 60.6
313 K, x2 = 0.85 | 0.289 | –
318.1 K, x2 = 0 | – | 1.65
318.1 K, x2 = 0.12 | – | 3.41
318.1 K, x2 = 0.123 | 0.261 | –
318.1 K, x2 = 0.194 | 0.389 | –
318.1 K, x2 = 0.271 | 0.452 | –
318.1 K, x2 = 0.362 | 0.5 | –
318.1 K, x2 = 0.45 | 0.504 | –
318.1 K, x2 = 0.456 | – | 13.04
318.1 K, x2 = 0.567 | 0.449 | –
318.1 K, x2 = 0.69 | 0.373 | –
318.1 K, x2 = 0.691 | – | 27.8
318.1 K, x2 = 0.844 | – | 49.9
318.1 K, x2 = 0.846 | 0.337 | –
323 K, x2 = 0 | – | 1.52
323 K, x2 = 0.119 | 0.283 | –
323 K, x2 = 0.19 | 0.43 | –
323 K, x2 = 0.195 | – | 4.04
323 K, x2 = 0.271 | 0.5 | –
323 K, x2 = 0.358 | – | 7.89
323 K, x2 = 0.359 | 0.558 | –
323 K, x2 = 0.453 | 0.566 | –
323 K, x2 = 0.563 | 0.508 | –
323 K, x2 = 0.567 | – | 15.44
323 K, x2 = 0.69 | 0.424 | –
323 K, x2 = 0.846 | 0.392 | –
323 K, x2 = 0.848 | – | 40

N#C[N-]S(=O)(=O)C(F)(F)F.[Li+] + CCCC[N+]1(C)CCCC1.N#C[N-]S(=O)(=O)C(F)(F)F
101 kPa, frequency 0 MHz
Conditions | electrical conductivity [S/m]
303 K, x1 = 0.1 | 0.295
318 K, x1 = 0.2 | 0.194
323 K, x1 = 0.05 | 0.706
323 K, x1 = 0.1 | 0.558

101 kPa
Conditions | viscosity [mPa·s]
303 K, x1 = 0.1 | 89.5
318 K, x1 = 0.2 | 150
323 K, x1 = 0.05 | 30.3
323 K, x1 = 0.1 | 43.5
328 K, x1 = 0.1 | 34.6

O=S(=O)([N-]S(=O)(=O)C(F)(F)F)C(F)(F)F.[Na+] + CCCC[N+]1(C)CCCC1.O=S(=O)([N-]S(=O)(=O)C(F)(F)F)C(F)(F)F
100 kPa, x1 = 0.24
Conditions | electrical conductivity [S/m]
280.2 K | 0.013
338.7 K | 0.409
347.4 K | 0.521
400.6 K | 1.83

O=Cc1ccco1 + CCCC[P+](C)(CCCC)CCCC.COS(=O)(=O)[O-]
100 kPa
Conditions | viscosity [mPa·s]
293.15 K, x2 = 0.1 | 9
293.15 K, x2 = 0.191 | 41
293.15 K, x2 = 0.624 | 270
298.15 K, x2 = 0.062 | 2.33
298.15 K, x2 = 0.1 | 3.5
303.15 K, x2 = 0.191 | 6.7
303.15 K, x2 = 0.732 | 182
308.15 K, x2 = 0.142 | 4
308.15 K, x2 = 0.317 | 12.6
308.15 K, x2 = 0.624 | 58
313.15 K, x2 = 0 | 1.17
313.15 K, x2 = 0.1 | 2.6
318.15 K, x2 = 0.062 | 1.64
318.15 K, x2 = 0.142 | 3.5
318.15 K, x2 = 0.249 | 5.7
318.15 K, x2 = 0.499 | 20.5
323.15 K, x2 = 0.191 | 4
323.15 K, x2 = 0.249 | 4.7

CC(C)O + CCCC[n+]1ccn(C)c1.F[B-](F)(F)F
101 kPa, x2 = 0
Conditions | viscosity [mPa·s]
293.15 K | 2.42
298.15 K | 2.08
303.15 K | 1.8
308.15 K | 1.56
313.15 K | 1.36
318.15 K | 1.19
323.15 K | 1.05

CCCC[n+]1ccn(C)c1.[Cl-] + CCCC[n+]1ccn(C)c1.F[B-](F)(F)F
Conditions | viscosity [mPa·s]
293 K, 101 kPa, x1 = 0.1015 | 201

ClC(Cl)Cl + CCCC[n+]1ccn(C)c1.F[B-](F)(F)F
298.15 K, 101 kPa
Conditions | electrical conductivity [S/m] | viscosity [mPa·s]
x1 = 0.1079 | 0.245 | 92
x1 = 0.2033 | 0.29 | 73
x1 = 0.3071 | 0.347 | 55.5
x1 = 0.4018 | 0.411 | 40.8
x1 = 0.5052 | 0.498 | 27.1
x1 = 0.6091 | 0.586 | 16.3
x1 = 0.7028 | 0.676 | 9.2
x1 = 0.7825 | 0.668 | 5.01
x1 = 0.8491 | 0.54 | 2.99

CCCC[n+]1ccn(C)c1.O=S(=O)([O-])C(F)(F)F + CCCC[n+]1ccn(C)c1.F[P-](F)(F)(F)(F)F
100 kPa
Conditions | viscosity [mPa·s]
293.15 K, x2 = 0.006063 | 91.5
293.15 K, x2 = 0.15 | 109.5
293.15 K, x2 = 0.1999 | 116.6
293.15 K, x2 = 0.7 | 218
298.15 K, x2 = 0.08059 | 83.4
303.15 K, x2 = 0.08059 | 69.3
303.15 K, x2 = 0.1 | 70.8
308.15 K, x2 = 0.15 | 60
308.15 K, x2 = 0.1999 | 63.1
313.15 K, x2 = 0.1999 | 50.6
313.15 K, x2 = 0.5002 | 66.8
313.15 K, x2 = 0.7995 | 88.2
318.15 K, x2 = 0.15 | 40
318.15 K, x2 = 0.1999 | 41.75
318.15 K, x2 = 0.3 | 45.51
318.15 K, x2 = 0.8997 | 76.3
323.15 K, x2 = 0.3 | 38.24
323.15 K, x2 = 0.8997 | 62.3
328.15 K, x2 = 0.15 | 29.81
328.15 K, x2 = 0.1999 | 30.97

F[P-](F)(F)(F)(F)F.[Li+] + CCCC[n+]1ccn(C)c1.N#C[N-]C#N
electrical conductivity [S/m], 101 kPa
Conditions | x2 = 0.8823 | x2 = 0.8953 | x2 = 0.9172 | x2 = 0.9531 | x2 = 0.9799
288.15 K | – | 0.307 | 0.39 | 0.482 | 0.585
298.15 K | 0.488 | 0.522 | 0.633 | 0.771 | 0.909
333.15 K | 1.63 | 1.68 | 1.97 | 2.24 | 2.58

CCCCO + CCCC[n+]1ccn(C)c1.N#C[S-]
101 kPa, x1 = 1
Conditions | viscosity [mPa·s]
328.15 K | 1.25
348.15 K | 0.846

[Cl-].[Li+] + CCCC[n+]1ccn(C)c1.N#C[S-] + CN1CCCC1=O
298.15 K, 101 kPa
Conditions | viscosity [mPa·s]
x2 = 0, x1 = 0.03819 | 2.63
x2 = 0, x1 = 0.07228 | 3.56
x2 = 0, x1 = 0.1042 | 4.958
